Results as given in patent US12070505B2, “Targeted peptide-drug conjugates” (priority 2021, dated 2024).
Like-named read-outs stand apart in the source and are kept apart here. Residues, ends and D or L forms follow the SMILES beside them. Groups on a side chain read outwards from the residue. *: point of attachment. Glutaryl(5-(14-O-Dox)) = COc1cccc2c1C(=O)c1c(O)c3c(c(O)c1C2=O)C[C@@](O)(C(=O)COC(=O)CCCC(=O)*)C[C@@H]3O[C@H]1C[C@H](N)[C@H](O)[C@H](C)O1; βAla = NCCC(=O)O

Tests used:
MES-SA/MX2 cells [1] = test: FACS cellular uptake with endocytosis inhibitors, MES-SA/MX2; assay type: cell-based; settings: 5 μM, 3 h
H9C2 myocardium cells = settings: 24 h
Procedure: (§1) Cytotoxic activity of the synthesized conjugate and noncovalent mixtures of cyclic [WR]9+Dox was determined in SK-OV-3, MDA-MB-231, MCF-7, MES-SA/MX2, and H9C2 cells. […] An appropriate growth medium was used for each cell line (for SK-OV-3: McCoy's […] with L-glutamine containing fetal bovine serum (FBS) (10%) and penicillin or streptomycin (1%); for MDA-MB-231 and MCF-7 cells: DMEM/F12 (1:1) (1×) with L-Glutamine and 15 mM HEPES containing FBS (10%) and penicillin or streptomycin (1%), and for MES-SA/MX2 and H9C2 cells: Minimum Essential Medium Eagle with Earle's salts and sodium bicarbonate, without L-glutamine containing FBS (10%), and penicillin or streptomycin (1%)). The cells were seeded in a complete growth medium 24 h prior to the experiment. […] The incubation was continued for 3 h.

MCF-7 cells = test: MTS cytotoxicity assay of [(WR)8WKβA]-Dox, MCF-7; assay type: cell-based
Procedure: as §1

H9C2 cells = test: Confocal microscopy uptake in H9C2 (Example 2); assay type: cell-based, rat; settings: 5 μM, 24 h
Procedure: Confocal Microscopy. MDA-MB-231, SK-OV-3, MES-SA/MX2, and H9C2 cells (7×10^4 cells/well) were seeded with a medium on a coverslip 24 h prior to the experiment in six well plates. After 24 h, the medium was changed with opti-MEM. The cells were treated with Dox and peptide-Dox conjugate (5 μM) in opti-MEM for 24 h. After 24 h incubation, the media were removed, and cells were washed three times with PBS in each well. Then, the cells were fixed with 3.7% formaldehyde for 10 min, followed by washing three times with PBS (pH 7.6) for 5 min. DAPI (40 μL) for staining the nuclei was placed on a microscope slide, and it was covered with the coverslip with the cell-attached side facing down. The slides were left standing horizontally in a dark place with airflow to allow faster drying. The cells were photographed using Nikon Instruments A1 Confocal Laser Microscope Series and NIS-Elements software (AR 4.30.02, 64 bit). The scan mode was selected as Galvano. The magnification and resolution were set at 40× and 1024, respectively.

MDA-MB-231 cells [2] = test: Differential extraction of Dox in nuclear and cytoplasmic compartments (HPLC); assay type: cell-based; settings: 50 μM; 4 h exposure
Procedure: Differential Extraction of Dox in Nuclear and Cytoplasmic Compartments. In order to confirm nuclear delivery of peptide-conjugated Dox, in addition to confocal microscopy, a differential nuclear and cytoplasmic extraction was performed. […] The cells were then pelleted at 2000 rpm for 5 min. After removing the supernatant, the cells were resuspended in Dounce buffer containing protease inhibitors. The cell suspension to be used was incubated on ice for 15 min before being spiked with cold 10% NP-40 and vortexed for 10 s. The suspension was centrifuged at 10,000 rpm for 10 min at 4° C. to pellet the nuclei. The supernatant was isolated for cytoplasmic extraction. The nuclear pellet was washed in cold PBS twice and centrifuged to remove the supernatant. The isolated nuclei were then lysed using RIPA buffer containing protease inhibitors. The nuclear and cytoplasmic extractions were analyzed by analytical HPLC to differentially quantify free Dox (or Dox released from the conjugates) and peptide-conjugate Dox using an Agilent Zorbax SB-C18 (4.6×150 mm) column. The column was equilibrated with 0.1% TFA-water (solvent A). The elution was performed at a flow rate of 1 mL/min using a gradient of acetonitrile from 0 to 35% in 50 min, with the absorbance measured at 490 nm.

MDA-MB-231 cells [3] = test: FACS cellular uptake with endocytosis inhibitors, MDA-MB-231; assay type: cell-based; settings: 5 μM, 3 h
Procedure: Fluorescence-Activated Cell Sorter (FACS) Analysis of Cellular Uptake in the Presence of Endocytosis Inhibitors. A flow cytometry study was conducted in the presence of endocytosis inhibitors such as nystatin, chlorpromazine, chloroquine, and methyl β-cyclodextrin to determine whether the cellular uptake for the peptide-Dox was endocytosis-dependent. MDA-MB-231 (5×10^5 cells/well) were seeded in the medium 24 h prior to the experiment in six well plates, and after 24 h the medium was changed with Opti-MEM. […] After 3 h incubation, the media containing the compounds were removed. Next, the cells were digested with 0.05% trypsin/EDTA (0.53 mM) for 5 min to remove any artificial surface binding, centrifuged at 2500 RPM for 5 min, and then collected as the precipitant. Then the cells were washed two times with PBS, resuspended in flow cytometry buffer, and transferred to the flow cytometry tubes through the 35 μm Strainer Mesh cap. Finally, the cells were analyzed by flow cytometry (FACSCalibur Becton Dickinson) using the propidium iodide channel and CellQuest software. The data presented were based on the mean fluorescence intensity for 10,000 cells collected. All assays were performed in triplicate.

in vitro = settings: human, 25% human serum
Procedure: Human serum (250 μL) was diluted by adding sterile water (650 μL) and conjugate stock solution (100 μL) to give a sample with 25% human serum and 5 μM conjugate. The sample was kept at 37° C. in an incubator to mimic human body temperature. At regular time intervals, aliquots (100 μL) were taken and diluted with methanol (200 μL). After centrifugation (7000 RPM) of the mixture for 10 min, the supernatant was analyzed by analytical HPLC at 495 nm, and the major HPLC peaks were analyzed by mass spectrometry. The mobile phase used was acetonitrile/water with 0.1% TFA, with a gradient of 20-45% and a flow rate of 1 mL/min in 50 min. The percentage of intact conjugate and the release of the free drug were plotted against incubation time. The AUC obtained after each run was used to confirm the conjugate's degradation, and t1/2 (the time needed to hydrolyze half of the initial conjugate in human serum) was calculated from the graph plotted as AUC versus incubation time.

CCRF-CEM cells = settings: 5 μM
Procedure: Intracellular Hydrolysis. […] Cells were grown with serum-free RPMI medium in 75 cm^2 culture flasks to approximately 70-80% confluence (1.37×10^7 cells/mL). […] Then the cells were incubated at 37° C. After 4 h, the medium containing the conjugate was aspirated, and cells were washed three times with PBS before adding a fresh serum-free medium. The cells were first partitioned/transferred to culture plates (six wells) contained 1.37×10^7 cells per well in 5 mL of medium, then incubated for the indicated time. After incubation, the cells were collected using centrifugation. After centrifugation, the medium was removed by decantation. The cell pellets were washed with ice-cold PBS to remove any remaining medium. The cell pellets were then completely extracted with an equal volume of methanol, chloroform, and isopropanol mixture (4:3:1 v/v/v) and finally filtered through 0.2 μm filters.

MES-SA/MX2 cells [4] = test: MTS cytotoxicity assay of [(WR)8WKβA]-Dox, MES-SA/MX2; settings: MES-SA/MX2; for reduction in cell viability: 24 h
Procedure: as §1

Structure (SMILES): COc1cccc2c1C(=O)c1c(O)c3c(c(O)c1C2=O)C[C@@](O)(C(=O)COC(=O)CCCC(=O)NCCC(=O)NCCCC[C@@H]1NC(=O)[C@H](Cc2c[nH]c4ccccc24)NC(=O)[C@H](CCCNC(=N)N)NC(=O)[C@H](Cc2c[nH]c4ccccc24)NC(=O)[C@H](CCCNC(=N)N)NC(=O)[C@H](Cc2c[nH]c4ccccc24)NC(=O)[C@H](CCCNC(=N)N)NC(=O)[C@H](Cc2c[nH]c4ccccc24)NC(=O)[C@H](CCCNC(=N)N)NC(=O)[C@H](Cc2c[nH]c4ccccc24)NC(=O)[C@H](CCCNC(=N)N)NC(=O)[C@H](Cc2c[nH]c4ccccc24)NC(=O)[C@H](CCCNC(=N)N)NC(=O)[C@H](Cc2c[nH]c4ccccc24)NC(=O)[C@H](CCCNC(=N)N)NC(=O)[C@H](Cc2c[nH]c4ccccc24)NC(=O)[C@H](CCCNC(=N)N)NC(=O)[C@H](Cc2c[nH]c4ccccc24)NC1=O)C[C@@H]3O[C@H]1C[C@H](N)[C@H](O)[C@H](C)O1 [[(WR)8WKβA]-Dox] (cyclo(K([βAla-Glutaryl(5-(14-O-Dox))])WRWRWRWRWRWRWRWRW))
- cellular uptake in presence of nystatin and chloroquine (MES-SA/MX2 cells [1]): not reduced significantly
- cytotoxicity (H9C2 myocardium cells; 1 μM and 5 μM): no significant cytotoxicity
- cytotoxicity (H9C2 myocardium cells; 10 μM): comparable to Dox
- reduction of cell proliferation (MCF-7 cells; 1 μM, 24 h): 28%
- reduction of cell proliferation (MCF-7 cells; 1 μM, 72 h): 70%
- reduction of cell proliferation (MCF-7 cells; 5 μM, 24 h): 55%
- reduction of cell proliferation (MCF-7 cells; 5 μM, 72 h): 77%
- reduction of cell proliferation (MCF-7 cells; 10 μM, 24 h): 56%
- reduction of cell proliferation (MCF-7 cells; 10 μM, 72 h): 77%
- uptake in heart cells (confocal microscopy, words) (H9C2 cells): did not show any significant uptake
- total concentration of Dox (conjugated and released) in the nucleus (MDA-MB-231 cells [2]): higher than free Dox
- cellular uptake in presence of nystatin and chloroquine (MDA-MB-231 cells [3]): not reduced significantly
- half-life at 5 μM (in vitro): ~6 h
- remaining at 3 h, 5 μM (in vitro): 80%
- free Dox released intracellularly (CCRF-CEM cells; within 12 h): More than 36%
- free Dox released intracellularly (CCRF-CEM cells; within 72 h): Approximately 100%
- reduction in cell viability (MES-SA/MX2 cells [4]; 1 μM): 64%
- reduction in cell viability (MES-SA/MX2 cells [4]; 5 μM): 50%
- Dox-resistant cell survival / viability (MES-SA/MX2 cells [4]; 5 μM, 72 h): 8%
- reduction in cell viability (MES-SA/MX2 cells [4]; 10 μM): 39%
